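Five concentrations, 48 hours, 96-well plates. GI50 = concentration required for 50% inhibition of growth. At the TGI there is no net growth.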
How the values were obtained:
Test in all cases: inhibition of tumour cell growth, NCI panel, 48 h
[1] = tested on: ACHN renal
[2] = tested on: A549 NSCLC
[3] = tested on: HOP-62 NSCLC
[4] = tested on: T-47D breast
[5] = tested on: SK-MEL-5 melanoma
[6] = tested on: BT-549 breast
[7] = tested on: HCT-15 colon
[8] = tested on: NCI-H460 lung
[9] = tested on: EKVX NSCLC
[10] = tested on: HS 578T breast
[11] = tested on: SNB-19 CNS
[12] = tested on: UACC-257 melanoma
[13] = tested on: MDA-MB-468 breast
[14] = tested on: RPMI-8226 leukemia
[15] = tested on: OVCAR-5 ovarian
[16] = tested on: HL-60(TB) leukemia
[17] = tested on: CAKI-1 renal
[18] = tested on: UACC-62 melanoma
[19] = tested on: SF-295 CNS
[20] = tested on: TK-10 renal
[21] = tested on: SW-620 colon
[22] = tested on: SK-OV-3 ovarian
[23] = tested on: MALME-3M melanoma
[24] = tested on: HCT-116 colon
[25] = tested on: U251 CNS
[26] = tested on: KM12 colon
[27] = tested on: HT29 colon
[28] = tested on: HOP-92 NSCLC
[29] = tested on: MOLT-4 leukemia
[30] = tested on: K-562 leukemia
[31] = tested on: SR leukemia
[32] = tested on: DU-145 prostate
[33] = tested on: SF-268 CNS
[34] = tested on: RXF 393 renal
[35] = tested on: NCI-H522 lung
[36] = tested on: OVCAR-3 ovarian
[37] = tested on: IGROV1 ovarian
[38] = tested on: NCI-H23 lung
[39] = tested on: A498 renal
[40] = tested on: OVCAR-8 ovarian
[41] = tested on: SN12C renal
[42] = tested on: M14 melanoma
[43] = tested on: COLO 205 colon
[44] = tested on: NCI-H226 lung
[45] = tested on: SK-MEL-28 melanoma
[46] = tested on: MCF7 breast
[47] = tested on: LOX IMVI melanoma
[48] = tested on: PC-3 prostate
[49] = tested on: 786-0 renal
[50] = tested on: CCRF-CEM leukemia
[51] = tested on: NCI/ADR-RES ovarian
[52] = tested on: OVCAR-4 ovarian
[53] = tested on: MDA-MB-435
[54] = tested on: SF-539 CNS
[55] = tested on: HCC-2998 colon

N#Cc1c(-c2ccc(F)cc2)nc(SCc2ccc(F)cc2)nc1N1CCNCC1
GI50 [1]: 15 µM | TGI [1]: 28.5 µM | GI50 [2]: 11.5 µM | TGI [2]: 25 µM | GI50 [3]: 17 µM | TGI [3]: 33.4 µM | GI50 [4]: 13.8 µM | TGI [4]: 30.4 µM | GI50 [5]: 16.8 µM | TGI [5]: 30.5 µM | GI50 [6]: 10.7 µM | TGI [6]: 23 µM | GI50 [7]: 11.7 µM | TGI [7]: 24.6 µM | GI50 [8]: 14.3 µM | TGI [8]: 29.4 µM | GI50 [9]: 13.1 µM | TGI [9]: 26.4 µM | GI50 [10]: 15.6 µM | TGI [10]: 34.6 µM | GI50 [11]: 14.9 µM | TGI [11]: 29.4 µM | GI50 [12]: 14.8 µM | TGI [12]: 28.7 µM | GI50 [13]: 12.4 µM | TGI [13]: 26.2 µM | GI50 [14]: 6.75 µM | TGI [14]: 24.6 µM | GI50 [15]: 14.5 µM | TGI [15]: 28 µM | GI50 [16]: 7.66 µM | TGI [16]: 24 µM | GI50 [17]: 15.3 µM | TGI [17]: 29 µM | GI50 [18]: 15.9 µM | TGI [18]: 29.9 µM | GI50 [19]: 16.6 µM | TGI [19]: 30.9 µM | GI50 [20]: 15 µM | TGI [20]: 29.7 µM | GI50 [21]: 5.97 µM | TGI [21]: 19.2 µM | GI50 [22]: 16 µM | TGI [22]: 29.8 µM | GI50 [23]: 14.7 µM | TGI [23]: 28.4 µM | GI50 [24]: 4.15 µM | TGI [24]: 15.6 µM | GI50 [25]: 10.3 µM | TGI [25]: 24.7 µM | GI50 [26]: 18 µM | TGI [26]: 33.6 µM | GI50 [27]: 4.87 µM | TGI [27]: 17.3 µM | GI50 [28]: 7.64 µM | TGI [28]: 22.1 µM | GI50 [29]: 10.5 µM | TGI [29]: 26 µM | GI50 [30]: 3.76 µM | TGI [30]: 17.8 µM | GI50 [31]: 2.18 µM | TGI [31]: 5.07 µM | GI50 [32]: 16.8 µM | TGI [32]: 31.3 µM | GI50 [33]: 14.1 µM | TGI [33]: 30.9 µM | GI50 [34]: 7.3 µM | TGI [34]: 21.4 µM | GI50 [35]: 13.9 µM | TGI [35]: 29.9 µM | GI50 [36]: 15.5 µM | TGI [36]: 30.8 µM | GI50 [37]: 15.6 µM | TGI [37]: 29.8 µM | GI50 [38]: 16 µM | TGI [38]: 30.4 µM | GI50 [39]: 15.3 µM | TGI [39]: 29.8 µM | GI50 [40]: 13.2 µM | TGI [40]: 30.5 µM | GI50 [41]: 15.3 µM | TGI [41]: 29 µM | GI50 [42]: 13.6 µM | TGI [42]: 26.8 µM | GI50 [43]: 1.83 µM | TGI [43]: 3.4 µM | GI50 [44]: 15.9 µM | TGI [44]: 35.7 µM | GI50 [45]: 16.4 µM | TGI [45]: 30.2 µM | GI50 [46]: 6.43 µM | TGI [46]: 20.2 µM | GI50 [47]: 2.28 µM | TGI [47]: 5.69 µM | GI50 [48]: 12.5 µM | TGI [48]: 27.7 µM | GI50 [49]: 13.8 µM | TGI [49]: 29.3 µM | GI50 [50]: 14.8 µM | TGI [50]: 33.6 µM | GI50 [51]: 13.7 µM | TGI [51]: 30.4 µM | GI50 [52]: 16.5 µM | TGI [52]: 33.6 µM | GI50 [53]: 16.8 µM | TGI [53]: 31.3 µM | GI50 [54]: 15.6 µM | TGI [54]: 29 µM | GI50 [55]: 2.53 µM | TGI [55]: 6.27 µM

Source: PubChem BioAssay (NCI)
